# Laboratory results as given in article PMC7370187, “Screening of an Epigenetic Drug Library Identifies 4-((hydroxyamino)carbonyl)-N-(2-hydroxyethyl)-N-Phenyl-Benzeneacetamide that Reduces Melanin Synthesis by Inhibiting Tyrosinase Activity Independently of Epigenetic Mechanisms” (International Journal of Molecular Sciences, 2020).
# pIC50: −log10 of the molar value.
# Legend:
# B16-F10 cells [1] = experiment: Cell viability assay (MTT); assay type: cell-based, murine; conditions: 48 h
# Method: Cell viability was evaluated using 3-(4,5-dimethylthiazol-2-yl)-2,5-diphenyltetrazolium bromide (MTT). After treatment of B16-F10 cells with each drug for 48 h, cells were washed with phosphate-buffered saline (PBS) and incubated for 2 h in the culture medium containing 1 mg∙mL^−1 MTT (Amresco, Solon, OH, USA). The medium was discarded by aspiration, the formazan dye deposited inside the cells was extracted with isopropanol, and absorbance was measured at 595 nm using a Spectrostar Nano microplate reader.
# [2] = Copper chelating activity assay (pyrocatechol violet); assay type: physicochemical; conditions: 200 μM test compound, 200 μM copper ions, 200 μM pyrocatechol violet, absorbance 632 nm
# Method: Copper chelating activity was determined by using pyrocatechol violet (Sigma-Aldrich). […] The reaction mixture containing a potential chelator at varied concentrations, 200 μM CuSO4, and 200 μM pyrocatechol violet was incubated at 25 °C for 20 min, and its absorption spectra were recorded using a Shimadzu UV-1650PC spectrophotometer (Shimadzu Corporation, Kyoto, Japan). Copper chelating activity was evaluated by the change in the absorbance of pyrocatechol violet at 632 nm.
# TYR = experiment: In vitro TYR catalytic activity, murine and human TYR given together (abstract); assay type: biochemical; conditions: range over human and murine TYR preparations
# Method: (§1) To examine the direct effect of a drug on the catalytic activity of TYR, in vitro experiments were undertaken. Lysate of B16F10 cells stimulated with α-MSH for 24 h was used as a murine TYR preparation. Human TYR preparation was the lysate of human embryonic kidney 293 cells constitutively expressing human TYR (HEK293-TYR). […] The TYR activity assay mixture (200 μL) consisted of 100 mM sodium phosphate buffer (pH 6.8), TYR preparation (40 μg protein), a drug at various concentrations, 1.0 mM L-tyrosine, and 42 μΜ L-DOPA. For enzyme kinetic study, the concentrations of L-tyrosine plus L-DOPA were varied while their relative ratio was kept the same as the standard assay condition. […] The reactions were also performed in the absence of a TYR preparation to correct for the effects of non-enzymatic reactions. Enzyme activity was calculated as follows: activity (% control) = (C−D)/(A−B) × 100, where A and B are the absorbance changes of the control group with and without enzyme, respectively, while C and D are the absorbance changes of the test group with and without enzyme, respectively.
# murine TYR = biological target: T1, murine TYR (Mus musculus, UniProt P11344); experiment: In vitro TYR catalytic activity assay, lysate of α-MSH-stimulated B16F10 cells; assay type: biochemical
# T1 construct: One is the protein extract of B16F10 cells stimulated by α-MSH and thus expresses a high amount of TYR; endogenous in cells; host or cells: B16F10 murine melanoma cells stimulated with α-MSH for 24 h; Triton X-100 lysate supernatant
# T1 sequence (P11344 19-533): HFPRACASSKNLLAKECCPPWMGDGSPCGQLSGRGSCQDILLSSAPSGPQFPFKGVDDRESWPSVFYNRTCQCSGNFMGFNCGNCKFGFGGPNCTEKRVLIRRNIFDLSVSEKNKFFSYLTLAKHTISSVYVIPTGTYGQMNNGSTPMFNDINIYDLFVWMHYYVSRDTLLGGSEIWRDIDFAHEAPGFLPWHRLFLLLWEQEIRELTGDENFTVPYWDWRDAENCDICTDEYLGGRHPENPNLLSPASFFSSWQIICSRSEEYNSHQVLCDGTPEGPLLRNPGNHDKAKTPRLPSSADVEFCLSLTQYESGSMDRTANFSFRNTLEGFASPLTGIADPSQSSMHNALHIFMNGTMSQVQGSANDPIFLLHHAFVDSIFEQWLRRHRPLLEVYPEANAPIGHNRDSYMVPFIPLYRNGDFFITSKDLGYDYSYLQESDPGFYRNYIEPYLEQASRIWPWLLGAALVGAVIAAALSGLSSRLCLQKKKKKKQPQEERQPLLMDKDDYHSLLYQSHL
# Method: as §1
# B16-F10 cells [3] = experiment: Melanin content assay (extracellular and intracellular); assay type: cell-based, murine; conditions: K8 1–10 µM, 100 nM α-MSH
# Method: The intracellular melanin retained in cells and extracellular melanin secreted from cells were separately determined. B16-F10 cells were plated in 6-well plates (1.2 × 10^4 cells per well), cultured for 24 h, treated with a test drug at various concentrations for 60 min, and stimulated with 100 nM α-MSH for 72 h. The conditioned medium was evaluated to determine the extracellular melanin content. Adherent cells were extracted with 10% dimethyl sulfoxide solution containing 1.0 M sodium hydroxide at 60 °C for 60 min, and melanin content in the extract was estimated by measuring the absorbance at 400 nm and normalized to the total protein content of the cells.
# [4] = tested on: TYR, TYRP1, DCT and MITF protein in B16-F10 cells; experiment: Western blotting of melanogenic proteins; assay type: cell-based, murine; conditions: 100 nM α-MSH, 24 h, β-actin loading control
# Method: Western blotting was performed as previously described. Primary antibodies for TYR (#127217) was purchased from MyBioSource (San Diego, CA, USA). Primary antibodies for TYRP1 (#10443) and β-actin (#47778) were purchased from Santa Cruz Biotechnology (Santa Cruz, CA, USA). Primary antibodies for MITF (#20663) and DCT (#74073) were purchased from Abcam (Cambridge, UK). Anti-rabbit IgG (#2357) and anti-goat IgG (#2020) secondary antibodies were purchased from Santa Cruz Biotechnology. Anti-mouse IgG (#7076) secondary antibody was purchased from Cell Signaling Technology (Danvers, MA, USA). Each antibody was diluted 1 to 1000 in antibody dilution buffer containing 20 mM Tris-Cl (pH 7.5), 200 mM NaCl and 5% skim milk.
# After B16-F10 cells were treated with drug and/or α-MSH, whole-cell lysates were prepared using a lysis buffer (pH 7.2) consisting of 10 mM Tris-Cl (pH 7.4), 120 mM NaCl, 25 mM KCl, 2 mM EGTA, 1 mM EDTA, 0.5% Triton X-100 and a protease inhibitor cocktail (Roche, Mannheim, Germany) for foe evaluation of TYR, TYRP1, and DCT. For MITF extraction, cells were extracted with RIPA buffer consisting of 25 mM Tris-HCl (pH 7.6), 150 mM NaCl, 1% NP-40, 1% sodium deoxycholate, 0.1% SDS and protease inhibitor cocktail. Proteins were denatured in the Laemmli sample buffer by heating at 95 °C for 5 min and separated by 7.5% SDS-PAGE gel. Proteins were transferred to a polyvinylidene difluoride membrane (Amersham Pharmacia, Little Chalfont, UK). The membrane was incubated with a primary antibody solution at 4 °C overnight, followed by incubation with a solution of a secondary antibody conjugated to horseradish peroxidase at room temperature for 1 h. The target protein bands were detected by a chemiluminescence method using a picoEPD Western Reagent kit (ELPIS-Biotech, Daejeon, Korea). The blots were analyzed using the NIH Image J program.
smiles,measurement,setting,value
"O=C(NO)c1ccc(CC(=O)N(CCO)c2ccccc2)cc1 [K8, 4-((hydroxyamino)carbonyl)-N-(2-hydroxyethyl)-N-phenyl-benzeneacetamide]",relative viability,B16-F10 cells [1]; drug 1.0 μM,without reducing cell viability
same,cytotoxicity (relative viability),B16-F10 cells [1]; drug at various concentrations,did not show toxic effects up to 10 μM
same,copper ions chelated,[2],27%
same,pIC50,TYR,5.82 to 5.96
same,pIC50,"murine TYR; B16F10 cell-free extract, L-tyrosine plus L-DOPA",5.82
same,inhibition type (Lineweaver–Burk plots),"murine TYR; murine TYR, varying substrate concentrations",competitive type of inhibition
same,"intracellular melanin content, normalized for total cellular protein",B16-F10 cells [3]; cell extracts,suppressed by K8 in a dose-dependent manner
same,"extracellular melanin content, normalized for total cellular protein",B16-F10 cells [3]; conditioned medium,suppressed by K8 in a dose-dependent manner
same,DCT protein level,[4],did not significantly attenuate the increase
same,MITF protein expression,[4],not significantly affected
same,TRP1 (TYRP1) protein level,[4],did not significantly attenuate the increase
same,TYR protein level,[4],did not significantly attenuate the increase
